Measured values: patent US20110223642A1, “METHOD FOR INHIBITING BACTERIA GROWTH DURING ETHANOL FERMENTATION” (priority 2010, published 2011)

Tested on: gram positive bacteria
Test: Inhibition of gram positive bacteria growth in corn mash media
Type: cell-based
Conditions: typical corn mash media
Experimental: If added just to a propagator the isopellets should be diluted down to 2 to 20 ppm in a fermenter. The hop acids employed are not limited to isomerized hop acids but can also be stabilized unisomerized hop pellets. The stabilized hop pellet, can be isomerized into isoalpha acids once placed into 70° C. or hotter hot water for thirty or more minutes. Once this isomerization is completed the mixture can be added to the yeast propagator or fermenter. The unexpected results include reduced levels of isoalpha acid required to inhibit gram positive bacteria growth, better antibacterial protection toward the end of fermentation, and increased yeast alcohol tolerance. Typically about 15 ppm of isoalpha acid is required to inhibit most gram positive bacteria growth in a typical corn mash media; however, we discovered that isomerized hop pellets made in accordance with the present invention can inhibit bacteria growth at an isoalpha acid dosage of about 12 ppm. While not wishing to be bound by theory, it is believed iso-pellets made in accordance with the present invention also contain beta acids, which are very effective at inhibiting gram positive bacteria growth. Unfortunately beta acids ordinarily are not soluble in corn mash or cereal fermentations, and thus their antibacterial effect is worthless. […]

Substance: isoalpha acid
- isoalpha acid dosage required to inhibit gram positive bacteria growth: about 15 ppm
